Tests used:
[1] = tested on: coq null mutants; conditions: for viability of coq null mutants: 200 μM fatty acid, plate dilution assay
Procedure: FIG. 3. […] Yeast coq3, coq7 and coq9 null mutants were prepared in the W303 yeast genetic background (WT). Yeast strains were grown in YPD medium (1% Bacto-yeast extract, 2% Bacto-peptone, 2% dextrose) and harvested while in log phase growth (OD600 nm=0.1-1.0). Cells were washed twice with sterile water and resuspended in phosphate buffer (0.10 M sodium phosphate, pH 6.2, 0.2% dextrose) to an OD600 nm=0.2. Samples were removed and 1:5 serial dilutions starting at 0.20 OD/ml were plated on YPD plate medium, to provide a zero time untreated control (shown in top left panel). The designated fatty acids were added to 200 μM final concentration to 20 ml of yeast in phosphate buffer. At 2 h, 4 h, and 16 h samples were removed, 1:5 serial dilutions prepared, and spotted onto YPD plate medium. Pictures were taken after 2 days of growth at 30° C.
FIG. 4. […] The fatty acid sensitive assay was performed as described in FIG. 3, except that 100 μl aliquots were removed at 1, 2, and 4 h and, following dilution, spread onto YPD plates. Pictures were taken after 2 to 2.5 days, and the number of colonies counted.
Q-less yeast (coq mutants) provide an ideal system to assess in vivo autoxidation of fatty acids. Coenzyme Q (ubiquinone or Q) serves as a small lipophilic antioxidant as well as an electron shuttle in the respiratory chain of the mitochondrial inner membrane. Ten S. cerevisiae genes (COQ1-COQ10) are required for coenzyme Q biosynthesis and function, and the deletion of any results in respiratory deficiency (Tran U C, Clarke C F. Mitochondrion 2007; 7S,S62).
A plate dilution assay can be used to assess PUFA sensitivity. This assay can be performed by spotting serial five-fold dilutions of aliquots onto YPD plate media (FIG. 3). The sensitivity of the different strains can be observed by visual inspection of the density of cells in each spot.

[2] = tested on: Wild-type yeast; conditions: 200 μM fatty acid, 4 h incubation
Procedure: Uptake of exogenously supplied fatty acids by yeast. WT (W303) yeast were harvested at log phase and incubated in the presence of 200 μM of the designated fatty acid for either 0 or 4 h.
Wild-type yeast were harvested during log phase growth and incubated in the presence of exogenously added fatty acid (for 0 or 4 h) in the presence of phosphate buffer plus 0.20% dextrose, as described for the fatty acid sensitivity assay. Cells were harvested, washed twice with 10 ml sterile water, and the yeast cell pellets were then processed by alkaline methanolysis as described above. The fatty acids are detected as methylesters (FAMEs) following GC-MS with C17:0 added as an internal standard (FIG. 6). The amounts of 18:3 and D4 detected after 4 h incubation were extrapolated from the calibration curve.

[3] = Kinetics of oxygen consumption during oxidation in chlorobenzene initiated by AMVN; assay type: physicochemical
Procedure: FIG. 7. Kinetics of O2 consumption accompanied the oxidation of 0.71 M LA (plots 1 and 2) and 0.71 M D2-LA (plot 3) in chlorobenzene initiated by 40 mM AMVN at 37° C. Plot 2—0.23 mM HPMC was added to 0.71 M LA.
The kinetics of oxygen consumption during the oxidation of LA and D2-LA was studied with a glass capillary microvolumeter (FIG. 7). The rate of oxidation, ROX, was measured as a slope of [O2] traces. The rate of initiation, RIN, was determined by the inhibitor method with HPMC (“6-hydroxy-2,2,5,7,8-pentamethylbenzochroman”) as a reference inhibitor. RIN was calculated from the induction period of inhibited oxidation, tIND: RIN=2·[HPMC]/tIND. […] When the process was inhibited by 0.23 mM chain-breaking antioxidant HPMC, the duration of the induction period, tIND, was about 48 min, with the RIN value of around 0.16×10^−6 M/s. […] The latter precludes a direct determination of RIN. […] An estimated kinetic isotope effect (“KIE”), from comparison of ROX for LA and D2-LA, was around 6.1×10^−6/0.18×10^−6≈35. A similar KIE was determined during the oxidation of LA and 11,11-d2-LA in Triton X-100 aqueous micelles (data not shown). For comparative purposes, the theoretical KIE is 6.9 at 25° C. See Carpenter, “Determination of Organic Reaction Mechanisms” (John Wiley & Sons, 1984), p. 89.

[4] = Kinetics of the oxidation of mixtures of D2-LA and LA; assay type: physicochemical; conditions: data not shown
Procedure: FIG. 8. Dependence of the rate of oxidation of the mixture of LA and D2-LA in chlorobenzene solution on mixture composition. Conditions: [LA]+[11,11-d2-LA]=0.775 M; [AMVN]=0.0217 M; 37° C. RIN=(1.10±0.08)×10^−7 M/sec.
To simulate the likely in vivo conditions, the kinetics of the oxidation of the mixtures of D2-LA and LA were studied (FIG. 8). In the experiments, the concentration of LA plus 11,11-d2-LA was 0.775 M; the concentration of AMVN was 0.0217 M; and the reactions were carried out at 37° C. The results afforded an RIN of 1.10±0.08×10^−7 M/sec.

[5] = tested on: coq null mutants; conditions: four hour treatment; cited from earlier work
[6] = tested on: wild-type (strain W303-1B) cells; conditions: four hour treatment; cited from earlier work

SMILES	viability of coq null mutants [1]	incorporation by yeast [2]	length of the kinetic chain v=ROX/RIN [3]	protection in the yeast model [1]	other results
[2H]C([2H])(/C=C\CC)/C=C\C([2H])([2H])/C=C\CCCCCCCC(=O)O [D4-linolenic acid, 11,11,14,14-Tetradeutero-cis,cis,cis-octadeca-8,12,15-trienoic acid]	not killed	avidly incorporate			viability of treated cells compared with oleic ([1]; quantitative colony counting): similar
[2H]C([2H])(/C=C\CCCCC)/C=C\CCCCCCCC(=O)O [D2-LA, 11,11-Dideutero-cis,cis-octadeca-9,12-dienoic acid]			≈ 1.1		effect of addition of HPMC [3]: did not result in the decrease in ROX and the appearance of any detectable induction period; effect on oxidation of mixture with non-deuterated methyl linoleate [4]: qualititatively similar effect
CC/C=C\C/C=C\C/C=C\CCCCCCCC(=O)O [linolenic acid, (9Z,12Z,15Z)-9,12,15-Octadecatrienoic acid, reference compound]	dramatic loss of viability	avidly incorporate			Q-less (coq2, coq3, and coq5) yeast mutants viable following treatment [5]: Less than 1%; wild-type cells remaining viable [6]: 70%
[2H]C([2H])(/C=C\CC)/C=C\CC/C=C\CCCCCCC(=O)O [14,14-D2-linolenic acid, 14,14-Dideutero-cis,cis,cis-octadeca-8,12,15-trienoic acid]				comparable protection	
[2H]C([2H])(/C=C\C/C=C\CC)C/C=C\CCCCCCC(=O)O [11,11-D2-linolenic acid, 11,11-Dideutero-cis,cis,cis-octadeca-8,12,15-trienoic acid]				comparable protection	
CCCCC/C=C\C/C=C\CCCCCCCC(=O)O [LA, (9Z,12Z)-9,12-Octadecadienoic acid, reference compound]			38±3		

From patent publication US10154983B2, “Neurodegenerative disorders and muscle diseases implicating PUFAs” (Retrotope, Inc., priority 2011, dated 2018)
